The values that follow are results of earlier work, collected in patent publication US20180298405A1, “METHODS AND COMPOSITIONS TO INCREASE HUMAN SOMATIC CELL NUCLEAR TRANSFER (SCNT) EFFICIENCY BY REMOVING HISTONE H3-LYSINE TRIMETHYLATION, AND DERIVATION OF HUMAN NT-ESC” (CHILDREN'S MEDICAL CENTER CORPORATION, priority 2015, published 2018).

In this series the test system is SETDB1 H3K9me3 HMTase; H3K27me3 and H3K9me3. The conditions noted are these: Lee et al., 2013; cited from earlier work.

As to `Nc1nccc2c1ncn2[C@@H]1C=C(CO)[C@@H](O)[C@H]1O` [3-Deazaneplanocin A], the “effect on H3K27me3 and H3K9me3 levels” value was “reduced levels of both H3K27me3 and H3K9me3”; the “effect on SETDB1 H3K9me3 HMTase” value is “decrease of SETDB1 H3K9me3 HMTase”.
